According to publication PMC314469, “Protein Interaction Networks by Proteome Peptide Scanning” (PLoS Biology, 2004):

test system: Myo5 SH3 domain; assay: SPOT analysis of cellulose-bound peptides (WISE), Myo5 SH3 domain (Dataset S4); type: binding, Saccharomyces cerevisiae; conditions: SPOT analysis of cellulose-bound 14-mer yeast proteome peptides, Myo5 SH3 domain; normalized value; mean where the peptide was synthesized more than once

In order of rising “The normalized value in BLU units” value:
1. GLLLLFVPDSPYDP  21.6 BLU
2. SELYYEGPETPTPS  50.5 BLU
3. VLEAYNVPTPPRLE  57.4 BLU
4. EADGLVQPVVPDKV  75.1 BLU
5. NPFPFPIPEIPSTQ  86.5 BLU
6. EFDEKLPPKKPAGP  87.3 BLU
7. PPKLLVYPESPETN  91.3 BLU
8. GYDEKGNPIPPNNW  96.0 BLU
9. PFIDYEFPHLPNEL  98.9 BLU
10. YEVTFDGPNDPLHP  110.9 BLU
11. GWSTYIPPFNPLEI  113.7 BLU
12. LPTALLSPLRPSLC  115.0 BLU
13. KAGSFGAPSSPTSG  123.7 BLU
14. EEQVKEKPNEPEGK  134.2 BLU
15. HEYNLALPKFPILF  146.8 BLU
16. YEGRFWNPENPYKF  162.7 BLU
17. DPNQLSTPPTPKSA  166.4 BLU
18. SENGRLTPGLPRSY  169.8 BLU
19. ILTLLKMPEVPNSV  172.2 BLU
20. REASLDIPYKPIIA  176.1 BLU
21. LALLMTDPDAPSRT  177.5 BLU
22. VAGYFVIPHTPMPS  179.6 BLU
23. LPKLKSNPSVPHLH  193.1 BLU
24. MFNLLQKPEQPHQN  204.0 BLU
25. EPEPLMSPVPPSSA  215.2 BLU
26. DLIHLDCPQQPNGY  219.5 BLU
27. ALGIFFAPESPWWL  229.3 BLU
28. KPLNLSKPISPPPS  254.3 BLU
29. FLRTMAQPTDPKDQ  256.6 BLU
30. KLFVLLPPIDPKDG  258.2 BLU
31. KFTDMLDPEKPNVI  262.4 BLU
32. GEFFHCSPNIPHYA  271.2 BLU
33. VLTKMNAPQKPEDI  296.2 BLU
34. FEMVFRHPEQPHMI  309.9 BLU
35. IEVPMEYPFKPPKM  384.5 BLU
36. PSRSKSNPILPIMR  522.7 BLU
37. RFSSRRAPIAPSGK  564.4 BLU
38. VFKFLFHPVTPSHF  564.7 BLU
39. PKKSRVLPPLPFPL  3587.4 BLU
40. SAFPYVFPLPPWIP  12966.5 BLU

same assay, conditions: SPOT analysis of cellulose-bound peptides probed with Myo5 SH3 domain; normalized value

In order of falling “The normalized value in BLU units (SPOT analysis, Myo5 SH3)” value:
1. PAPPPPPPPPPPP  53285 BLU
2. LPAPPPPPRRGPA  43350 BLU
3. APAPPPPPQMPAT  7749 BLU
4. RPSKFFHPPIPHIP  776.9 BLU
5. TLKKFVLPCLPRKN  504.4 BLU
6. SPSTMDFPKLPSFQ  466.9 BLU
7. GWVVYPPPPKPSYN  452.7 BLU
8. LLISHLFPTNPEFS  413.9 BLU
9. FFTIWFIPLVPVFW  396.7 BLU
10. KELPFTGPSIPFEN  338.9 BLU
11. VLSKFIKPKNPSLV  319.5 BLU
12. RLTNFEVPSLPTFH  319.1 BLU
13. SETSHHSPSAPFQR  257.2 BLU
14. RPQWLSYPEQPLNS  241.0 BLU
15. QENPYIIPLPPSST  240.4 BLU
16. NASAMPAPYMPYYY  225.5 BLU
17. QPTNFQYPPPPFGQ  224.1 BLU
18. MASGLLPPIQPGFD  223.0 BLU
19. GAPPLPVPNGPAVG  222.0 BLU
20. SFVGFPKPLLPRNH  205.1 BLU
21. GWPVYNYPMQPTTE  167.9 BLU
22. GLLTYKGPKVPYQK  150.1 BLU
23. QELPMEVPKEPAPA  138.8 BLU
24. FFNRYPNPYSPHVL  136.7 BLU
25. PEDFLPPPPKPHFA  125.8 BLU
26. VPNRWATPLDPSIL  125.7 BLU
27. REVDLPIPAQPGPP  114.0 BLU
28. ALGFYRAPGSPAPA  100.8 BLU
29. EWPGLDPPYIPLDF  62.7 BLU
30. SPSTHAAPVTPIIS  53.3 BLU

same assay, conditions: SPOT analysis of membrane-bound peptides, Myo5 SH3 domain; normalized value (see methods)

In order of rising “The normalized value in BLU units” value:
1. TEIYKLEPREPQVD  29.1 BLU
2. TSWARDNPSKPDIA  81.6 BLU
3. EKVFRGDPEHPAIS  90.0 BLU
4. MDMDRNVPLAPNLN  91.4 BLU
5. GENIKITPQKPFWF  115.0 BLU
6. LVGLKYEPLFPYFA  124.8 BLU
7. PELAKNSPLAPIKK  125.2 BLU
8. PNPLKKAPIPPLAY  137.2 BLU
9. KDEVKLHPPEPKDL  163.7 BLU
10. NGTWKYNPTVPNEL  172.6 BLU
11. PSHYRNIPYNPATF  174.8 BLU
12. FENRKHQPFTPKGM  211.2 BLU
13. LSYLKDLPFVPFLF  213.0 BLU
14. PTVQKFSPHPPTTL  213.4 BLU
15. IDKSKLSPRFPELK  233.0 BLU
16. IKYFKKFPKDPLAM  237.4 BLU
17. CNRARYLPQNPDII  243.9 BLU
18. KLKIKILPEQPQLE  261.3 BLU
19. NTIIKFDPGRPIYN  271.8 BLU
20. RAGNREPPSTPSTL  273.8 BLU
21. PSSHKRKPVIPWDA  289.2 BLU
22. KVSSKYDPDNPNKD  434.5 BLU
23. LNRKKVTPQLPKVT  499.8 BLU
24. YFVKKIRPGNPLTK  508.5 BLU
25. KQKKKPTPTRPYNY  516.2 BLU
26. DKKKKKYPRKPKKN  532.3 BLU
27. PCKKKSKPKVPAKN  579.8 BLU
28. PPRFKNFPTLPSKI  634.0 BLU
29. TKKRKLGPKAPNPL  693.8 BLU
30. VSQRKKRPISPHLT  814.5 BLU
31. GRSLRKRPTSPSIS  819.6 BLU
32. KLNKRVLPSKPKKS  918.8 BLU
33. KRRSKSLPITPKSI  920.9 BLU
34. GTGRRRSPSTPIMP  921.0 BLU
35. YVKERRPPPPPPLL  15869.6 BLU
36. VAPNRIPPKVPVIN  61069.9 BLU

same assay, conditions: SPOT analysis of membrane-synthesized peptides probed with Myo5 SH3 domain; normalized value

In order of falling “The normalized value in BLU units (SPOT analysis, Myo5 SH3)” value:
1. RPKRRAPPPVPKKP  67429.7 BLU
2. PPLPRAPPVPPATF  35914.7 BLU
3. GNNSRNIPPPPPPP  10334.3 BLU
4. NSTVRRKPHSPNKK  955.5 BLU
5. NKPKRKRPAPPKKK  872.0 BLU
6. SYISRKYPRAPAFI  740.2 BLU
7. PFIRRYTPLKPITK  649.2 BLU
8. NFPQRMMPPPPGLV  617.7 BLU
9. EEKVKRTPPLPPVP  586.7 BLU
10. TGKFRYMPFSPAGT  555.5 BLU
11. VHFYKSLPQGPAPA  509.7 BLU
12. VNIGRRSPYLPLQP  476.3 BLU
13. ITSIRGSPSLPKNK  370.3 BLU
14. LMSLKRFPQLPSNT  347.7 BLU
15. SEMHRAAPETPRSI  322.4 BLU
16. ILKNRMNPEKPYEL  321.6 BLU
17. LLEERNNPDIPVDK  311.9 BLU
18. RFWTRARPIDPNAY  279.1 BLU
19. QIVNKPLPPLPVAG  248.9 BLU
20. DIGSKKLPTGPSKK  219.8 BLU
21. GKDHRLAPNGPGMH  217.5 BLU
22. YTYSRNEPVIPTKP  209.5 BLU
23. TLDEKNLPRLPTPF  205.2 BLU
24. SERRKALPKEPKKL  200.0 BLU
25. IGSPRHAPSRPDSI  193.4 BLU
26. NQIARQIPYQPWYL  163.5 BLU
27. LIDFKDYPDVPKVP  153.6 BLU
28. FGTAKILPEEPSNT  153.4 BLU
29. TKTDKSYPMCPVDA  150.0 BLU
30. DILKKESPDVPLFD  146.1 BLU
31. AKTNKNVPVLPTPG  130.3 BLU
32. AKINKVSPEDPWVL  121.0 BLU
33. PSSKKNKPNPPPGS  106.9 BLU
34. KNLLREIPQVPAFQ  104.1 BLU
35. IVNEKRTPALPSNL  101.8 BLU
36. DKIFKTDPNEPAND  99.1 BLU
37. SRYLKDHPNLPTPE  69.2 BLU
